Results from patent US10301292B2, “Bicyclic compound” (Takeda Pharmaceutical Company Limited, priority 2014, dated 2019).

Key:
[1] = biological target: T1, human ACC1 (Homo sapiens, UniProt Q13085); assay: Measurement of ACC1 inhibitory activity (Malonyl-CoA production, RapidFire-mass spectrometry); assay type: biochemical; details: 10 μM of the test compound, recombinant human ACC1; for inhibition at 10 µM: read-out: ACC1 inhibitory rate (%) at 10 μM
T1 construct: His tag (from vector pFAST-BacHTc; protein captured on Ni-NTA) (N); made in house; host or cells: SF-9 insect cells, recombinant baculovirus BAC-ACC1
Protocol: (1) Cloning of Human ACC1 Gene and Preparation of Recombinant Baculovirus
Human ACC1 gene was cloned by PCR using a human liver cDNA library (Clontech) as a template and Primer 1 and Primer 2 shown below. Primer 1 and Primer 2 were prepared by adding SalI, NotI restriction enzyme recognition sequences based on the information of the base sequence of human ACC1 gene (Genbank Accession U19822).
PCR was performed using Pyrobest DNA polymerase (TAKARA BIO INC.). The obtained PCR product was cloned to pT7 Blue vector (Novagen) and after confirmation of the base sequence, digested with restriction enzymes SalI and XbaI. The obtained DNA fragment was inserted into pFAST-BacHTc (Invitrogen) digested with restriction enzymes SalI and XbaI to give expression plasmid ACC1/pFAST-BacHTc.
Using the expression plasmid ACC1/pFAST-BacHTc and BAC-TO-BAC Baculovirus Expression System (Invitrogen), virus stock BAC-ACC1 of recombinant Baculovirus was prepared.
(2) Preparation of ACC1 Protein
SF-9 cells (Invitrogen) were inoculated to a medium (10 L) for insect cells (Sf-900IISFM medium (Invitrogen) containing 5% fetal bovine serum (Trace), 50 mg/L Gentamicin (Wako Pure Chemical Industries, Ltd.), 0.1% Pluronic F-68 (Invitrogen)) at 1.0×10^6 cells/mL, and cultured with shaking in Wave Bioreactor (GE Healthcare) at 27° C., 20 rpm, rocking angle 10°, oxygen concentration 30%.
On day 2 of the culture, recombinant Baculovirus BAC-ACC1 was added, and the cells were cultured for 3 days. The culture medium was centrifuged at 4000×g for 10 min to give virus-infected cells. The cells were washed with phosphate buffered saline (Invitrogen) and centrifuged under the same conditions. The obtained cells were cryopreserved at −80° C.
The cryopreserved cells were thawed in ice and suspended in 800 mL of 25 mM HEPES buffer (pH 7.5) containing 10% Glycerol, 0.3 M NaCl, 1 mM EDTA, 25 mM Sodium β-Glycerophosphate and 1 mM Sodium Orthovanadate, and supplemented with Complete Protease Inhibitor (Roche). The obtained suspension was homogenized two times in a polytron homogenizer (Kinematica) at 20,000 rpm for 20 sec. The obtained cell disruption solution was clarified by centrifugation at 186,000×g for 60 min and the supernatant was passed through Ni-NTA Superflow Cartridges (5 mL) (QUIAGEN). Furthermore, it was washed with 25 mM HEPES buffer (pH 7.5) containing 20 mM Imidazole, 0.3 M NaCl, and eluted with 25 mM HEPES buffer (pH 7.5) containing 250 mM Imidazol, 0.3 M NaCl. The eluate was concentrated by Amicon Ultra-15 (Nihon Millipore K.K.) having a fraction molecular weight of 50K. The obtained concentrate was subjected to gel filtration with 50 mM HEPES buffer (pH 7.5) containing 10 mM MgCl2, 2 mM dithiothreitol, 10 mM tripotassium citrate, 0.3 M NaCl by using HiLoad 26/60 Superdex200 prep grade gel filtration column (GE Healthcare) to give ACC1. The obtained ACC1 was cryopreserved at −80° C.
(3) Measurement of ACC1 Inhibitory Activity
ACC1 obtained in the above-mentioned (2) was diluted with an enzyme reaction buffer (50 mM HEPES (pH 7.5), 10 mM MgCl2, 10 mM Tripottasium Citrate, 2 mM Dithiothreitol, 0.001% Fatty acid free BSA) to a concentration of 0.2 μg/ml, and the mixture was added to each well of a 384 well assay plate by 10 μl. A test compound dissolved in dimethyl sulfoxide (DMSO) was diluted with an enzyme reaction buffer and the resulting solution (5 μl) was added to each well. The mixture was incubated at room temperature for 60 min. Then, a substrate solution (50 mM KHCO3, 200 μM ATP, 200 μM Acetyl-CoA, 5 μl) was added to each well, and the mixture was reacted at room temperature for 30 min. The reaction was quenched by adding a reaction quenching liquid (1.3% formic acid, 0.2 μM Malonyl-^13C3-CoA) by 60 μL each to the obtained reaction mixtures (test compound addition group).
In addition, a reaction was performed in the same manner as above and without adding the test compound (test compound non-addition group). […]

[2] = tested on: HCT116 cells; assay: Growth inhibitory activity on HCT116 cell (CellTiter-Glo); assay type: cell-based; details: table head: 10 μM (text b2498: 1 μM), 3 days incubation; for inhibition at 10 µM: Homo sapiens, HCT-116, 72 h, read-out: HCT116 cell proliferation inhibitory rate (%) at 10 μM
Protocol: The growth inhibitory activity of the compound on HCT116 cell was evaluated by the following method.
HCT116 cells were seeded in a 384 well blackplate at 900 cells/30 μL/well, and maintained in an RPMI medium (Wako)) containing an assay medium (2% fetal bovine serum, 50 Unit/mL penicillin, 50 μg/mL streptomycin (Invitrogen). The next day, a test compound dissolved in dimethyl sulfoxide (DMSO) was diluted with the assay medium, and the obtained compound solution was added by 10 μL to each well of a plate containing HCT116 cells and incubated at 37° C., 5% CO2 (test compound addition group).
A similar reaction was performed without adding a test compound (test compound non-addition group).
Furthermore, a similar reaction was performed under the conditions without adding HCT116 cell and a test compound (control group).
After 3 days, 20 μL of a CellTiter-Glo reagent (Promega KK) was added to the well, and the mixture was stirred for 10 min. Thereafter, the luminescence value of each well was measured by the EnVision™ multilabel counter (Perkin Elmer Inc.).
The HCT116 cell proliferation inhibitory rate (%) of the test compound was determined by the following calculation formula. (1−(luminescence of test compound addition group−luminescence of control group)÷(luminescence of test compound nonaddition group−luminescence of control group))×100

| inhibition at 10 µM [1] [%] | ACC1 inhibitory rate (%) at 10 μM ([1]; 10 µM) [%] | Structure (SMILES) | inhibition at 10 µM [2] [%] | HCT116 cell proliferation inhibitory rate (%) at 10 μM [2] [%] |
| --- | --- | --- | --- | --- |
| 100 |  | CC(=O)NC(C)c1ccc2cc(-c3ccc(Oc4cccc(OC[C@@H]5CC5(F)F)c4)nc3)oc2c1 (stereo partly drawn) [Example 68, N-(1-(2-(6-(3-(((1S)-2,2-difluorocyclopropyl)methoxy)phenoxy)pyridin-3-yl)-1-benzofuran-6-yl)ethyl)acetamide] | 39 |  |
| 95 |  | CC(=O)NC(C)c1ccc2oc(-c3ccc(Oc4cccc(OCC5CC5)c4)nc3)nc2c1 (centres unmarked) [Example 71, N-(1-(2-(6-(3-(cyclopropylmethoxy)phenoxy)pyridin-3-yl)-1,3-benzoxazol-5-yl)ethyl)acetamide] | 41 |  |
| 90 |  | CC(=O)NC(C)c1ccc2sc(-c3ccc(Oc4cccc(OCC5CC5)c4)cc3)cc2c1 (centres unmarked) [Example 73, N-(1-(2-(4-(3-(cyclopropylmethoxy)phenoxy)phenyl)-1-benzothiophen-5-yl)ethyl)acetamide] | 28 |  |
| 94 |  | CC(=O)NC(C)c1ccc2sc(-c3ccc(Oc4cccc(OCC5CC5)c4)nc3)nc2c1 (centres unmarked) [Example 75, N-(1-(2-(6-(3-(cyclopropylmethoxy)phenoxy)pyridin-3-yl)-1,3-benzothiazol-5-yl)ethyl)acetamide] | 40 |  |
| 99 |  | CC(=O)NC(C)c1ccc2nc(-c3ccc(Oc4cccc(OC[C@@H]5CC5(F)F)c4)cn3)oc2c1 (stereo partly drawn) [Example 76, N-(1-(2-(5-(3-(((1S)-2,2-difluorocyclopropyl)methoxy)phenoxy)pyridin-2-yl)-1,3-benzoxazol-6-yl)ethyl)acetamide] | 45 |  |
| 100 |  | CC(=O)NC(C)c1ccc2nc(-c3ccc(Oc4cccc(OC[C@@H]5CC5(F)F)c4)nc3)oc2c1 (stereo partly drawn) [Example 80, N-(1-(2-(6-(3-(((1S)-2,2-difluorocyclopropyl)methoxy)phenoxy)pyridin-3-yl)-1,3-benzoxazol-6-yl)ethyl)acetamide] | 33 |  |
| 98 |  | CC(=O)NC(C)c1ccc2nc(-c3ccc(Oc4cc(OCC5CC5)ccn4)cc3)oc2c1 (centres unmarked) [Example 82, N-(1-(2-(4-((4-(cyclopropylmethoxy)pyridin-2-yl)oxy)phenyl)-1,3-benzoxazol-6-yl)ethyl)acetamide] | 40 |  |
| 95 |  | CC(=O)NC(C)c1ccc2cc(-c3ccc(Oc4cccc(OCC5CC5)c4)cc3)nn2c1 (centres unmarked) [Example 86, N-(1-(2-(4-(3-(cyclopropylmethoxy)phenoxy)phenyl)pyrazolo[1,5-a]pyridin-6-yl)ethyl)acetamide] | 34 |  |
| 101 |  | CC(=O)NC(C)c1ccc2nc(-c3ccc(Oc4cccc(OCC5CC5)c4)cc3)oc2c1F (centres unmarked) [Example 90, N-(1-(2-(4-(3-(cyclopropylmethoxy)phenoxy)phenyl)-7-fluoro-1,3-benzoxazol-6-yl)ethyl)acetamide] | 22 |  |
| 97 |  | CC(=O)NC(C)C1CCc2nc(-c3ccc(Oc4cccc(OCC5CC5)c4)cc3)oc2C1 (centres unmarked) [Example 95, N-(1-(2-(4-(3-(cyclopropylmethoxy)phenoxy)phenyl)-4,5,6,7-tetrahydro-1,3-benzoxazol-6-yl)ethyl)acetamide] | 11 |  |
|  | 96 | CC(=O)NC(C)C1CCc2nc(-c3ccc(Oc4cccc(OCC5CC5)c4)cc3)oc2C1 (centres unmarked) [Example 95b, N-(1-(2-(4-(3-(cyclopropylmethoxy)phenoxy)phenyl)-4,5,6,7-tetrahydro-1,3-benzoxazol-6-yl)ethyl)acetamide] |  | 20 |
| 100 |  | CC(=O)NC(C)c1ccc2nc(-c3ccc(Oc4cccc(OCC5CC5)c4)nn3)oc2c1 (centres unmarked) [Example 96, N-(1-(2-(6-(3-(cyclopropylmethoxy)phenoxy)pyridazin-3-yl)-1,3-benzoxazol-6-yl)ethyl)acetamide] | 23 |  |
| 92 |  | CC(=O)NC(C)c1ccc2nc(-c3cnc(Oc4cccc(OCC5CC5)c4)cc3C)oc2c1 (centres unmarked) [Example 97, N-(1-(2-(6-(3-(cyclopropylmethoxy)phenoxy)-4-methylpyridin-3-yl)-1,3-benzoxazol-6-yl)ethyl)acetamide] | 22 |  |
| 98 |  | C[C@H](NC(N)=O)c1ccc2nc(-c3ccc(Oc4cccc(OCC5CC5)c4)nc3)oc2c1 [Example 98b, 1-((1S)-1-(2-(6-(3-(cyclopropylmethoxy)phenoxy)pyridin-3-yl)-1,3-benzoxazol-6-yl)ethyl)urea] | 47 |  |
| 98 |  | COC(=O)NC(C)c1ccc2nc(-c3ccc(Oc4cccc(OCC5CC5)c4)nc3)oc2c1 (centres unmarked) [Example 99, methyl (1-(2-(6-(3-(cyclopropylmethoxy)phenoxy)pyridin-3-yl)-1,3-benzoxazol-6-yl)ethyl)carbamate] | 26 |  |
| 94 |  | CNC(=O)NC(C)c1ccc2nc(-c3ccc(Oc4cccc(OCC5CC5)c4)nc3)oc2c1 (centres unmarked) [Example 100, 1-(1-(2-(6-(3-(cyclopropylmethoxy)phenoxy)pyridin-3-yl)-1,3-benzoxazol-6-yl)ethyl)-3-methylurea] | 28 |  |
| 96 |  | CC(NC(=O)N(C)C)c1ccc2nc(-c3ccc(Oc4cccc(OCC5CC5)c4)nc3)oc2c1 (centres unmarked) [Example 101, 3-(1-(2-(6-(3-(cyclopropylmethoxy)phenoxy)pyridin-3-yl)-1,3-benzoxazol-6-yl)ethyl)-1,1-dimethylurea] | 30 |  |
| 94 |  | CCCn1cc(Oc2ccc(-c3nc4ccc(C(C)NC(C)=O)cc4o3)cn2)ccc1=O (centres unmarked) [Example 102, N-(1-(2-(6-((6-oxo-1-propyl-1,6-dihydropyridin-3-yl)oxy)pyridin-3-yl)-1,3-benzoxazol-6-yl)ethyl)acetamide] | 30 |  |
| 100 |  | CC(=O)NC(C)c1cc2cc(-c3cnc(Oc4cccc(OCC5CC5)c4)cn3)ccc2o1 (centres unmarked) [Example 103, N-(1-(5-(5-(3-(cyclopropylmethoxy)phenoxy)pyrazin-2-yl)-1-benzofuran-2-yl)ethyl)acetamide] | 29 |  |
